Source: patent publication US6358736B1, “Method for increasing the antigen presenting ability of leukemia cells” (The United States of America as represented by the …, priority 1995, dated 2002)

How the values were obtained:
HL-60 cells = assay: FACS analysis of cell surface markers on HL-60 cells; assay type: cell-based, human; conditions: optimal doses, within 20 hours
[1] = test system: NK subpopulation within the PBMC; assay: FACS analysis of NK subpopulation in unfractionated PBMC; assay type: cell-based, human; conditions: A23187 750 mg/ml, 40 hours
Procedure: (§1) PBMC were prepared by leukapheresis and Ficoll-Hypaque and placed in culture. Since the cells were never elutriated and no adherence step was performed, these cultures included large numbers of T, B, and NK lymphocytes as well as monocytes. The medium was our standard RPMI 10% human AB serum with antibiotics including amphotericin B. Cells were either untreated or treated for 40 hours with calcium ionophore A23187 […]. Cells were then harvested and analyzed by FACS. Cells were stained with FITC conjugated anti-CD3, anti-CD40, anti-CD57, anti-CD14, or the combination; in addition cells were stained with PE conjugated control antibodies, anti-B7.1, anti-B7.2, etc. In this way the effect of calcium ionophore treatment on each parameter could be clearly delineated.

HUVEC = assay: FACS analysis of umbilical vein endothelial cells; assay type: cell-based, human
Procedure: Endothelial cells were previously isolated from human umbilical vein (HUVEC), then cultured in IMEM with 20% fetal calf serum and rhEGF ([…]). The cells in this experiment had undergone four previous passages to confluence and were trypsinized and reseeded in T25 flasks. After four days culture to reachieve confluence individual flasks were treated with several concentrations of calcium ionophore (180, 375 and 750 ng/ml). Two days later, cells were harvested by trypsinization and analyzed.

[2] = test system: monocytes / dendritic cells cocultured with allogeneic T cells; assay: Allogeneic T cell sensitization (3H-thymidine) by treated monocytes/dendritic cells; conditions: A23187 750 ng/ml, 40 hours
Procedure: Uncultured monocytes and DC were each purified from elutriation fractions using Miltenyi microsuperparamagnetic beads; monocytes were positively selected based on CD14 expression, while dendritic cells were negatively selected based on low CD14 expression, then positively selected based on CD33 (myeloid marker) expression. Each isolated fraction was cultured for 40 hours either in medium alone or in ionophore A23187 750 ng/ml, then harvested and either FACS analyzed or microcultured with freshly prepared allogeneic T lymphocytes. Graded numbers of the cultured monocytes or dendritic cells were added to fixed numbers of T cells to compare their antigen-presenting ability. Four days later the microcultures were pulsed with ^3H-dTr and harvested 18 hours later.
Monocyte rich elutriation fractions were cultured for 40 hours with either no additives, ionophore A23187 750 ng/ml, or rhIlL-4 (1000 u/ml) and rhGM-CSF (20 ng/ml), a cytokine combination which leads monocytes to differentiate completely to dendritic cells during seven days of culture (Pickl et al, J. Immunol. 157:3850, 1996). MOMC were then harvested, irradiated (1000 rads) and cocultured in triplicate at various MOMC: T cell ratios with 10^5 allogeneic freshly prepared CD4^+ T cells in 0.2 ml RPMI with 5% AB plasma in 96 well tissue flat bottom culture plates. No cytokines were added during coculture. After 4 days [^3H]thymidine (1 μCi/well) was added and 18 hours later the wells were harvested and counted.
Monocytes in monocyte rich elutriation fractions (90-93% monocytes) were further purified using Miltenyi microsuperparagnetic beads coupled to anti-CD14. After incubation with these beads cells were applied to a magnetized column to positively select the strongly CD14^pos cells, and were enriched to >98% purity. Unpurified or purified monocytes were cultured for 40 hours in our standard culture medium with 750 ng/ml ionophore A23187, then harvested. The recovered cells were either immediately FACS analyzed or added in graded numbers to freshly prepared allogeneic T cells to assay their antigen presenting function. Four days later, the T cell cultures were pulsed with ^3H-TdR (tritiated thymidine) and harvested 18 hours later.

[3] = test system: pooled monocyte plus dendritic cell elutriation fractions; assay: FACS analysis of pooled 150-190 elutriation (APC) fractions after calcium ionophore activation; assay type: cell-based, human; conditions: 500 ng A23187
Procedure: Two patients were hooked up to Fenwal™ CS-3000 leukapheresis apparatus' running a Procedure 8 modification software program. Patient #1 had been previously diagnosed with colon cancer, and Patient #2 was a normal control. The Fenwal™ apparatus was configured to isolate a sample of neutrophil-depleted, platelet-rich cells from each patients' peripheral blood. After 3-5 hours of leukaphereis, the isolated blood cells from each patient were quickly spun down in a centrifuge and then rinsed in citrate buffer to remove any excess plasma, tumor related proteins or calcium.
Following the citrate buffer rinse, the cells were resuspended in EDTA-free, Ca^++/Mg^++ HBSS. The isolated cells from each patient were then subject to elutriation on a Beckman™ JE-6B elutriation rotor. Once reaching a speed of 3000 rpm, 5×10^9 cells were elutriated by pressurized air at buffer flow rates of 120, 140, 150, 160, 170, 180, 190 and 200 cc/minute.
Each fraction from both patients were immediately placed on ice to prevent cell adherence to the plastic walls of the collection vials. We coulter counted each of the fractions and discarded the r/o fraction because it had greater than a 10% contamination of neutrophils. The 150, 160, 170, 180 and 190 cc/min fractions from Patient #1 and Patient #2 were pooled then subject to calcium ionophore. The pooled fractions from each patient were divided in half, with one half being activated by 500 ng of calcium ionophore A23187 (Sigma), and one half being inactivated. From our previous experiments, we expected that the calcium ionophore treated cells would have a much higher number of dendritic cells due to conversion of monocytes to DCs. Prior to FACS analysis, we activated Patient #1's pooled fractions by incubating both the untreated and calcium ionophore treated cells for 40 hours in the presence of an autologous tumor cell lysate (the patients own tumor cells). Similarly, we activated Patient #2's pooled fractions by incubating both the untreated and calcium ionophore treated cells in the presence of keyhole limpet hemocyanin (KLH) for 40 hours.
The vast majority of cells stained in the pooled fractions were expected to be CD14+(ie: monocytes). The horizontal (X) axis of the FACS plot illustrated staining for DR, B7.1 or B72 surface antigens.

monocytes = assay: Calcium-chelation luminescence spectrophotometry of intracellular calcium flux; assay type: cell-based, human; conditions: indol-loaded monocytes; calcium ionophore 180-750 ng/ml
Procedure: Calcium-chelation luminescence spectrophotometry was utilized to measure intracellular calcium fluxes in monocytes. Monoytes were incubated with 5 uM/ml indol, a calcium chelating agent which emits fluorescence at different wavelengths (405 or 480 nm) depending on whether or not it is bound to cycloplasmic calcium. Increased calcium mobilization causes relative shifts in emission from one wavelength to the other. After 30 minute incubation with indol, monocytes were washed, pulsed with a variety of agents such as calcium ionophore, virus, f-MET-LEU-PHE, or LPS. To measure calcium fluxes at subsequent time intervals, cells were stimulated with a 355 nm wavelength beam, and fluorescence emission measured at 405 and 480 nm.

[4] = test system: T lymphocyte subpopulation within the PBMC; assay: FACS analysis of T lymphocyte subpopulation in unfractionated PBMC; assay type: cell-based, human; conditions: A23187 750 mg/ml, 40 hours
Procedure: as §1

WEHI-3 = assay: Costimulatory molecule expression on mouse myeloid leukemia line; assay type: cell-based; conditions: following calcium mobilization
Excerpt: Myeloid leukemia cell lines display marked upregulation of molecules linked to antigen-presentation and acquire increased T cell sensitizing capacity following calcium mobilization with either calcium ionophore or thapsigargin.

[5] = colon cancer patient, 40 hours with autologous tumor cell lysate
[6] = normal donor, 40 hours with KLH

CNc1ccc2oc(C[C@H]3O[C@@]4(CC[C@H]3C)O[C@H]([C@H](C)C(=O)c3ccc[nH]3)[C@H](C)C[C@H]4C)nc2c1C(=O)O [A23187]
expression of CD83, ICAM-1, B7.1 and B7.2 (HL-60 cells): uniform de novo expression of CD83, ICAM-1, B7.1, and B7.2
upregulation of surface markers [1]: negligible upregulation of surface markers
ICAM-1 and CD40 expression (HUVEC; 375 and 750 ng/ml, two days): upregulated ICAM-1 and CD40 expression
HLA-ABC expression (HUVEC; two days): unchanged
B7.1, B7.2, HLA-DR and CD83 expression (HUVEC; with or without ionophore treatment): failed to express detectable B7.1, B7.2, HLA-DR or CD83
T cell sensitizing capacity of purified monocytes vs prepurified fraction cells [2]: enhanced T cell sensitizing capacity identical on a cell numbers basis
T cell sensitizing capacity of treated monocytes (allogeneic CD4+ T cells) ([2]; graded numbers): much greater T cell sensitizing capacity
T cell sensitizing efficiency of purified DC ([2]; vs untreated): only a modest increase
T cell sensitizing efficiency of purified monocytes ([2]; vs untreated): a more marked enhancement
B7.1 expression [3, 5]: substantial but less uniform upregulation of B7.1
HLA-DR and B7.2 expression [3, 5]: marked upregulation of HLA-DR and B7.2
conversion of cells to cocktail negative (dendritic) phenotype [3, 5]: vast majority of cells were now converted to cocktail negative
HLA-DR, B7.1 and B7.2 expression [3, 6]: markedly upregulated for HLA-DR, B7.1 and B7.2
conversion of cells to cocktail (CD3, CD14, CD20, CD56) negative (dendritic) phenotype [3, 6]: vast majority of these cells was now cocktail negative
intracellular calcium flux / mobilization (monocytes): marked sustained monocyte mobilization
B7.2 upregulation over culture without ionophore [4]: 10 fold
CD40 upregulation [4]: 4 fold
HLA-DR upregulation [4]: 6 fold
ICAM-1 upregulation [4]: 3.3 fold
costimulatory molecule expression (WEHI-3): markedly increased costimulatory molecule expression
